Assay results published in ChEMBL document CHEMBL5126544, “Recent results from non-basic glycosidase inhibitors: How structural diversity can inform general strategies for improving inhibition potency” (Eur J Med Chem, 2022).
Each block holds one compound with its values, some of them ahead of it.

Assays:
[1] = Inhibition of alpha-glucosidase (unknown origin) using p-nitrophenyl-alpha-D-glucopyranoside as substrate preincubated for 10 mins followed by substrate addition and measured after 30 mins
[2] = Inhibition of Caldocellum-saccharolyticum […] using 4-nitrophenyl beta-d-glucopyranoside preincubated for 30 to 60 mins followed by substrate addition; set-up: species or system Caldicellulosiruptor saccharolyticus
[3] = Inhibition of baker's yeast alpha-glucosidase using p-nitrophenyl-alpha-glucopyranoside as substrate by spectrophotometric analysis; set-up: species or system Saccharomyces cerevisiae
[4] = Inhibition of saccharomyces cerevisiae alpha-glucosidase using PNP-G as substrate by spectrophotometric analysis
[5] = Inhibition of alpha-glucosidase (unknown origin) using PNP glycoside as substrate preincubated for 30 mins followed by substrate addition and measured after 60 mins by spectrophotometric analysis
[6] = Inhibition of alpha-amyloglucosidase (unknown origin) assessed as reduction in conversion of starch to glucose using starch as substrate preincubated with substrate for 20 mins followed by enzyme addition and measured after 30 mins
[7] = Inhibition of beta glucosidase (unknown origin); set-up: species or system Homo sapiens
[8] = Inhibition of almond beta-glucosidase using PNPG as substrate preincubated for 10 mins followed by substrate addition and measured after 20 mins by spectrophotometric analysis; set-up: species or system Prunus dulcis
[9] = Inhibition of saccharomyces cerevisiae alpha-glucosidase using pNPG as substrate preincubated for 15 mins followed by substrate addition
[10] = Inhibition of baker's yeast alpha-glucosidase using PNPG as substrate preincubated for 10 mins followed by substrate addition and measured after 30 mins by microplate reader analysis; set-up: species or system Saccharomyces cerevisiae
[11] = Inhibition of recombinant Streptococcus pneumoniae NanB using MUNANA as substrate
[12] = Inhibition of yeast alpha-glucosidase; set-up: species or system Saccharomyces cerevisiae
[13] = Inhibition of saccharomyces cerevisiae alpha-glucosidase using PNPG as substrate preincubated for 2 mins followed by substrate addition for 15 mins by microplate reader analysis
[14] = Inhibition of baker's yeast alpha-glucosidase using PNP-G as substrate preincubated for 10 mins followed by substrate addition and measured after 20 mins; set-up: species or system Saccharomyces cerevisiae
[15] = Inhibition of human alpha-fucosidase
[16] = species on record: Homo sapiens; assay: Potency index, ratio of acarbose IC50 to test compound IC50 for inhibition of alpha-glucosidase (unknown origin) using PNP glycoside as substrate preincubated for 30 mins followed by substrate addition and measured after 60 mins by spectrophotometric analysis; conditions: time 90.0 min
[17] = Inhibition of Bacillus stearothermophilus alpha-glucosidase type IV using p-nitrophenyl-alpha-D-glucopyranoside as substrate preincubated for 15 mins followed by substrate addition and measured after 35 mins by microtiter plate reader analysis; set-up: species or system Geobacillus stearothermophilus
[18] = Inhibition of saccharomyces cerevisiae alpha-glucosidase using PNP-G as substrate incubated for 20 mins
[19] = system: Rattus norvegicus; assay: Hypoglycemic activity in Wistar rat assessed as reduction in postprandial blood glucose level at 10 mg/kg, po administered for 10 mins followed by sucrose challenge and measured after 30 mins post oral sucrose challenge; format: functional; set-up: scale not given: the % may be the effect or the level left; conditions: time 40 min
[20] = Inhibition of saccharomyces cerevisiae alpha-glucosidase using p-nitrophenyl-alpha-D-glucopyranoside as substrate preincubated for 15 mins followed by substrate addition and measured after 20 mins by spectrophotometric analysis
[21] = Inhibition of Bacillus stearothermophilus alpha-glucosidase using PNP-G as substrate incubated for 20 mins; set-up: species or system Geobacillus stearothermophilus
[22] = Inhibition of rat intestinal maltase
[23] = system: Saccharomyces cerevisiae; assay: Inhibition of baker's yeast alpha-glucosidase at 1 uM using p-nitrophenyl-alpha-D-glucopyranoside as substrate preincubated for 30 mins followed by substrate addition and measured after 5 mins relative to control; conditions: time 35.0 min
[24] = Inhibition of rat intestinal maltase using maltose as substrate incubated for 15 mins by spectometric analysis
[25] = Inhibition of rat intestinal sucrase using sucrose as substrate incubated for 15 mins by spectometric analysis

IC50 [1]: 11 µM
Structure (SMILES): O=C1c2c(Cl)c(Cl)c(Cl)c(Cl)c2C(=O)N1Cc1ccccc1

IC50 [1]: 6 µM
Structure (SMILES): O=C1c2c(Cl)c(Cl)c(Cl)c(Cl)c2C(=O)N1CCc1ccccc1

Ki [2]: 0.11 nM
Structure (SMILES): OC[C@@H]1[C@@H](O)[C@H](O)[C@@H](O)c2nc(CCc3ccccc3)cn21

IC50 [1]: 7 µM
Structure (SMILES): O=C1c2c(Cl)c(Cl)c(Cl)c(Cl)c2C(=O)N1CCCCCCc1ccccc1

IC50 [3]: 0.15 µM | Ki [3]: 53 nM
Structure (SMILES): O=C(NC[C@H]1N[C@H](CO)[C@@H](O)[C@@H]1O)C1Cc2ccccc21 (stereo not given in full)

IC50 [4]: 66 µM
Structure (SMILES): COc1ccc(-c2oc3cc(O[C@H]4O[C@H](CO)[C@@H](O)[C@H](O)[C@H]4O)c(OC)c(O)c3c(=O)c2O)cc1CCC(C)COC(C)=O (stereo not given in full)

IC50 [5]: 38 µM
Structure (SMILES): Oc1ccccc1-c1nc2ccc(Br)cc2[nH]1

IC50 [6]: 4 µM
Structure (SMILES): O=C1NC(=O)C(Cc2ccc(Nc3nc4ccccc4n3Cc3ccccc3)cc2)S1 (stereo not given)

Ki [7]: 1 nM
Structure (SMILES): O[C@H]1[C@@H](O)Cn2ccnc2[C@@H]1O

IC50 [8]: 5 µM
Structure (SMILES): O[C@@H]1[C@H](O)Cn2c(nc3ccccc32)[C@@H]1O

IC50 [9]: 25 µM
Structure (SMILES): Cc1cccc2nc(-c3ccc(O)c(O)c3)[nH]c12

IC50 [10]: 8 µM
Structure (SMILES): Cc1cc2nc(-c3ccc(C(=O)N/N=C/c4cc(O)c(O)c(O)c4)cc3)[nH]c2cc1C

IC50 [10]: 8 µM
Structure (SMILES): Cc1cc2nc(-c3ccc(C(=O)N/N=C/c4cc(O)ccc4O)cc3)[nH]c2cc1C

IC50 [11]: 39 µM
Structure (SMILES): O=S(=O)(O)CCNCc1cccc(Cl)c1

IC50 [5]: 25 µM
Structure (SMILES): CCCCOc1ccc(-c2nc3ccc(Br)cc3[nH]2)cc1

IC50 [10]: 8 µM
Structure (SMILES): Cc1cc2nc(-c3ccc(C(=O)N/N=C/c4ccc(O)cc4O)cc3)[nH]c2cc1C

IC50 [5]: 38 µM
Structure (SMILES): COc1ccc(-c2nc3ccc(Br)cc3[nH]2)c(O)c1

IC50 [6]: 5 µM
Structure (SMILES): O=C1NC(=O)C(Cc2ccc(CNc3nc4ccccc4n3Cc3ccccc3)cc2)S1 (stereo not given)

IC50 [12]: 10.4 µM
Structure (SMILES): O=c1c(-c2ccc(O)cc2)coc2cc(O)cc(O)c12 [GENISTEIN]

IC50 [6]: 9 µM
Structure (SMILES): Cn1c(NCc2ccc(CC3SC(=O)NC3=O)cc2)nc2ccccc21 (stereo not given)

IC50 [13]: 195 µM
Structure (SMILES): C/C=C(\C)C(=O)NCCc1ccc(OCC=C(C)C)cc1

IC50 [14]: 50 µM
Structure (SMILES): CCOC(=O)/C=C/c1ccc(OC)cc1 [4-METHOXY ETHYL CINNAMATE]

Ki [15]: 4.47 nM
Structure (SMILES): CC(=O)NC[C@H]1N[C@@H](C)[C@@H](O)[C@@H](O)[C@@H]1O

IC50 [14]: 44 µM
Structure (SMILES): COc1ccc(/C=C/C(=O)O)cc1 [4-METHOXYCINNAMIC ACID]

IC50 [9]: 45 µM
Structure (SMILES): COc1ccc(O)c(-c2nc3cccc(C)c3[nH]2)c1

IC50 [9]: 16 µM
Structure (SMILES): Cc1cccc2nc(-c3ccccc3O)[nH]c12

IC50 [10]: 8 µM
Structure (SMILES): COc1ccc(/C=N/NC(=O)c2ccc(-c3nc4cc(C)c(C)cc4[nH]3)cc2)c(O)c1

Ki [7]: 4 nM
Structure (SMILES): O[C@H]1[C@@H](O)Cn2cc(CCc3ccccc3)nc2[C@@H]1O

IC50 [1]: 2 µM
Structure (SMILES): O=C1c2c(Cl)c(Cl)c(Cl)c(Cl)c2C(=O)N1CCCCc1ccccc1

IC50 [9]: 45 µM
Structure (SMILES): Cc1cccc2nc(-c3ccccc3[N+](=O)[O-])[nH]c12

IC50 [5]: 8 µM | Ratio IC50 [16]: 5
Structure (SMILES): Oc1ccc(-c2nc3ccc(Br)cc3[nH]2)cc1

IC50 [13]: 102 µM
Structure (SMILES): C/C(=C\O)[C@@H]1OC(=O)[C@H]2O[C@@]23[C@@]1(C)CC[C@@H]1[C@@]2(CCC(=O)[C@]13C)COC(=O)C[C@@H]2O

IC50 [17]: 23 µM
Structure (SMILES): Oc1cc(O)cc(/C=C/c2ccc(O)c(O)c2)c1 [PICEATANNOL]

IC50 [3]: 280 µM
Structure (SMILES): CC(=O)NC[C@H]1N[C@H](CO)[C@@H](O)[C@@H]1O

IC50 [18]: 2100 nM
Structure (SMILES): CCCCC1(CCCC)O[C@H]2Cc3c(O)cc(O)cc3O[C@@H]2c2cc(O)c(O)cc21

Structure (SMILES): OC[C@@H]1[C@@H](O)[C@H](O)[C@@H](O)c2nccn21
Ki [2]: 20 nM

IC50 [5]: 21 µM
Structure (SMILES): Brc1cccc(-c2nc3ccc(Br)cc3[nH]2)c1

IC50 [17]: 11 µM
Structure (SMILES): COc1cc([C@@H]2c3c(O)cc(O)cc3[C@@H]3[C@H]2CO[C@H]3c2ccc(O)c(O)c2)cc(OC)c1O
Activity [19]: 10.2%

IC50 [6]: 9 µM
Structure (SMILES): Cn1c(Nc2ccc(CC3SC(=O)NC3=O)cc2)nc2ccccc21 (stereo not given)

IC50 [20]: 10 µM
Structure (SMILES): NNC(=O)Cn1c(Cc2ccc(Cl)cc2Cl)nc2ccc([N+](=O)[O-])cc21

IC50 [17]: 4.9 µM
Structure (SMILES): Oc1cc(O)cc(/C=C/c2cc(O)c(O)c3c2[C@H](c2cc(O)cc(O)c2)[C@@H](c2cc(O)c(O)c(O)c2)O3)c1

IC50 [21]: 700 nM | IC50 [18]: 1200 nM
Structure (SMILES): CC1(C)O[C@H]2Cc3c(O)cc(O)cc3O[C@@H]2c2cc(O)c(O)cc21

IC50 [17]: 19 µM
Structure (SMILES): Oc1cc(O)cc(/C=C/c2cc(O)c(O)c(O)c2)c1
Activity [19]: 12.1%

IC50 [9]: 30 µM
Structure (SMILES): COc1ccc(-c2nc3cccc(C)c3[nH]2)c(O)c1

IC50 [10]: 12 µM
Structure (SMILES): Cc1cc2nc(-c3ccc(C(=O)N/N=C/c4ccc(O)c(O)c4)cc3)[nH]c2cc1C

IC50 [1]: 3.5 µM
Structure (SMILES): O=C1c2c(Cl)c(Cl)c(Cl)c(Cl)c2C(=O)N1CCCCCc1ccccc1

IC50 [12]: 2.6 µM
Structure (SMILES): OC[C@H]1OC(O)[C@H](O)[C@@H](O)[C@@H]1O (stereo not given in full) [DEXTROSE]

IC50 [22]: 42 nM
Structure (SMILES): O=[N+]([O-])c1ccccc1CO[C@@H](CO)[C@H](O)C[S+]1C[C@@H](O)[C@H](O)[C@H]1CO (single isomer, unassigned)

IC50 [10]: 8 µM
Structure (SMILES): COc1ccc(O)cc1/C=N/NC(=O)c1ccc(-c2nc3cc(C)c(C)cc3[nH]2)cc1

IC50 [1]: 4.5 µM
Structure (SMILES): O=C1c2c(Cl)c(Cl)c(Cl)c(Cl)c2C(=O)N1CCCc1ccccc1

IC50 [21]: 1100 nM | IC50 [18]: 900 nM
Structure (SMILES): CCCCCCC1(CCCCCC)O[C@H]2Cc3c(O)cc(O)cc3O[C@@H]2c2cc(O)c(O)cc21

IC50 [17]: 8.3 µM
Structure (SMILES): Oc1ccc(/C=C/c2cc(O)cc3c2[C@H](c2cc(O)cc(O)c2)[C@@H](c2ccc(O)c(O)c2)O3)cc1 [SCIRPUSIN A]

IC50 [5]: 38 µM | IC50 [6]: 15 µM | inhibition [23]: 56.5%
Structure (SMILES): C[C@H]1O[C@H](O[C@H]2[C@H](O)[C@@H](O)[C@@H](O[C@H]3[C@H](O)[C@@H](O)C(O)O[C@@H]3CO)O[C@@H]2CO)[C@H](O)[C@@H](O)[C@@H]1N[C@H]1C=C(CO)[C@@H](O)[C@H](O)[C@H]1O (stereo not given in full) [ACARBOSE]

IC50 [11]: 57 µM
Structure (SMILES): Cc1cccc(CNCCS(=O)(=O)O)c1

IC50 [10]: 8 µM
Structure (SMILES): Cc1cc2nc(-c3ccc(C(=O)N/N=C/c4cccc(O)c4O)cc3)[nH]c2cc1C

IC50 [20]: 40 µM
Structure (SMILES): O=[N+]([O-])c1ccc2nc(Cc3ccc(Cl)cc3Cl)n(Cc3nnc(S)n3-c3ccccc3)c2c1

IC50 [22]: 1600 nM
Structure (SMILES): OC[C@@H]1[C@@H](O)[C@H](O)C[S@@+]1C[C@@H](O)[C@@H](O)CO

IC50 [13]: 4.6 µM
Structure (SMILES): COc1cc2ccc(=O)oc2cc1O [SCOPOLETIN]

IC50 [17]: 6.5 µM
Structure (SMILES): COc1cc([C@@H]2c3c(O)cc(O)cc3[C@@H]3[C@H]2CO[C@H]3c2cc(O)c(O)c(O)c2)cc(OC)c1O

IC50 [9]: 34 µM
Structure (SMILES): Cc1cccc2nc(-c3ccccc3F)[nH]c12

IC50 [24]: 1.35 mM | IC50 [25]: 2.49 mM
Structure (SMILES): Oc1cc(O)c2c(c1)O[C@H](c1ccc(O)c(O)c1)[C@@H](O)C2 [CIANIDANOL]

IC50 [17]: 24 µM
Structure (SMILES): Oc1ccc(/C=C/c2cc(O)cc(O)c2)cc1 [RESVERATROL]

IC50 [9]: 5 µM
Structure (SMILES): Cc1cccc2nc(-c3ccccc3Cl)[nH]c12

IC50 [13]: 98 µM
Structure (SMILES): COC(=O)/C=C/c1ccc(OCC=C(C)C)c(OC)c1

IC50 [20]: 27 µM
Structure (SMILES): O=[N+]([O-])c1ccc2nc(Cc3ccc(Cl)cc3Cl)n(Cc3nnc(S)o3)c2c1

Ki [15]: 0.105 nM
Structure (SMILES): C[C@@H]1N[C@H](CNC(=O)CCc2c[nH]c3ccccc23)[C@@H](O)[C@H](O)[C@@H]1O
